Literature values as cited in patent publication US20190224170A1, “THERAPIES AND METHODS TO TREAT INFLAMMATORY GASTROINTESTINAL DISEASES AND DISORDERS” (The Regents of the University of California, priority 2018, published 2019).

System: multiple sclerosis
Conditions: supplementation with high doses of biotin

O=C(O)CCCC[C@@H]1SC[C@@H]2NC(=O)N[C@@H]21 [biotin]
clinical response: distinctive positive clinical response
